Here are results for 21 substances from patent publication US10463592B2, “Peptide with anti-aging effect and use thereof” (Osaka University, priority 2013, dated 2019).

Test [1] relates to Normal human dermal fibroblasts (NHDF). Nature of the test: Fibroblast growth-promoting activity, Cell Counting Kit (WST-1). It is filed as cell-based. As to conditions: for Fibroblast growth (% of control): NHDF, 2 days culture, WST-1. Here is the method: The fibroblast growth-promoting activity of the peptides was determined using Cell Counting Kit (WST-1) (Dojindo Laboratories). As a control, a group containing no peptide was used. Normal human dermal fibroblasts (from newborns) (Kurabo Industries Ltd., hereinafter called NHDF) were seeded in 96-well plates (0.5×10^4 cells/100 μL per well). The culture medium used was Medium 106 (containing 1% FBS without growth supplements). About 3 hours after cell seeding, 100 μL of a solution of each peptide in the culture medium was added to a final peptide concentration of 0.3, 1, 3, 10, or 30 μM. To control wells, 100 μL of the culture medium alone was added. To blank wells containing no cells, 200 μL of the culture medium alone was added. The cells were cultured in a CO2 incubator for 2 days. After the culture, 20 μL of the WST-1 reagent was added to each well and the plates were allowed to stand in a CO2 incubator for about 2 to 4 hours. The absorbance at 450 nm and 620 nm was determined with a microplate reader (Wallac 1420 ARVOsx (program: WST-1)), and the measured values were corrected by the equation: OD450-OD620. The net OD450 was calculated by subtracting the mean OD450-OD620 of the blank wells from the OD450-OD620 of the test wells. The percent fibroblast growth was calculated as the ratio (%) of the net OD450 of each peptide addition group to that of the control group. The effect of promoting fibroblast growth was evaluated on the basis of the percent fibroblast growth.
The examination was conducted in the same manner as in Example 2 except that the concentration of each peptide was set at 3, 10, 30, 100 or 300 μM.
For orientation: Tetrazolium assays rely on reduction of a dye to a coloured formazan, in cell work by metabolically active cells.

The subject of another test is NHDF (NB) cells. In words: Hyaluronic acid production by fibroblasts, ELISA. It is filed as cell-based, human. The note with it: for Hyaluronic acid production (% of control): highest value over 3, 10, 30, 100 and 300 μM, 5 days. On the procedure:
The amount of the hyaluronic acid production by fibroblasts was determined by ELISA. As a control, a group containing no peptide was used. NHDF (NB) cells were seeded in 24-well plates and cultured overnight (2×10^4 cells/500 μL per well). The culture medium used was Medium 106 (containing 1% FBS without growth supplements). Twenty hours after cell seeding, 500 μL of a solution of each peptide in the culture medium was added to each well to a final peptide concentration of 3, 10, 30, 100 or 300 μM. To control wells, 500 μL of the culture medium alone was added. The cells were cultured in a 5% CO2 incubator at 37° C. for 5 days. After the culture, the culture supernatant was transferred into a 1.5-mL tube and centrifuged at 15,000 rpm at 4° C. for 5 minutes, and the supernatant was harvested in a fresh tube. The amount of hyaluronic acid in the culture supernatant was determined using QnE Hyaluronic Acid (HA) ELISA Assay (Biotech Trading Partners) in accordance with the kit protocol. The percent hyaluronic acid production was calculated as the ratio (%) of the ELISA absorbance of each peptide addition group to that of the control group. The effect of promoting hyaluronic acid production was evaluated on the basis of the percent hyaluronic acid production.
The examination was conducted in the same manner as in Example 4 except that the percent hyaluronic acid production was determined as follows: the amount of hyaluronic acid was quantified from the ELISA calibration curve and the quantified value was used to calculate the ratio (%) of the amount of the hyaluronic acid production of each peptide addition group to that of the control group.

The mark [2] stands for this setting: at concentrations of 0.3 to 30 μM (Example 2).
Setting [3] is: highest value over 0.3, 1, 3, 10 and 30 μM.
Setting [4] is: Example 4, 3 to 300 μM, ELISA absorbance ratio.
[5] abbreviates: ratio of ELISA absorbance (Example 4).
[6] abbreviates: Example 5, 3 to 300 μM, ELISA calibration curve.
Setting [7] is: amount quantified from ELISA calibration curve (Example 5).
Setting [8] is: at concentrations of 30 to 300 μM (Example 3).
Where [9] appears, read: highest value over 3, 10, 30, 100 and 300 μM.

LRKRL (Ac-LRKRL-NH2) [OSK-14]: the “effect of promoting fibroblast growth” value in test [1] (setting [2]) is recorded as “exhibited the effect of promoting fibroblast growth”. Besides, the “Fibroblast growth (% of control)” value in test [1] (setting [3]) is 106.8 % of control. For the same substance, the “increase of hyaluronic acid production by fibroblasts” value (from here on “increase”) in the test with NHDF (NB) cells (setting [4]) is “increased the amount of the hyaluronic acid production by fibroblasts”. In the test on NHDF (NB) cells (setting [5]), the “Hyaluronic acid production (% of control)” value is 123.6 % of control.
RLKRL [OSK-21]: in the test on NHDF (NB) cells (setting [6]), the “increase” value is on record as “increased the amount of the hyaluronic acid production by fibroblasts”. For the same substance, the “Hyaluronic acid production (% of control)” value in the test with NHDF (NB) cells (setting [7]) is on record as 109.3 % of control.
As to RLRKR (Ac-RLRKR-NH2) [OSK-13], the “Fibroblast growth (% of control)” value in test [1] (setting [3]) was 99.3 % of control. For the same substance, the “Hyaluronic acid production (% of control)” value with NHDF (NB) cells (setting [5]) is 74.3 % of control.
On to LKR [OSK-23], for which, in the test with NHDF (NB) cells (setting [6]), the “increase” value is “increased the amount of the hyaluronic acid production by fibroblasts”. The “Hyaluronic acid production (% of control)” value with NHDF (NB) cells (setting [7]) is given as 113.7 % of control.
As to LKR [OSK-19] (Ac-Leu-Lys-Arg-NH2), the “increase” value in the test on NHDF (NB) cells (setting [6]) is “increased the amount of the hyaluronic acid production by fibroblasts”. Besides, the “Hyaluronic acid production (% of control)” value in the test with NHDF (NB) cells (setting [7]) is recorded as 117.6 % of control.
For the substance ELKLI (Ac-ELKLI-NH2) [OSK-2], the “Fibroblast growth (% of control)” value in test [1] (setting [3]) was 99.7 % of control. Besides, the “increase” value in the test on NHDF (NB) cells (setting [4]) is reported as “increased the amount of the hyaluronic acid production by fibroblasts”. Moreover, the “Hyaluronic acid production (% of control)” value with NHDF (NB) cells (setting [5]) is 184.0 % of control.
Consider RKRLK (Ac-RKRLK-NH2) [OSK-15], for which the “effect of promoting fibroblast growth” value in test [1] (setting [2]) is recorded as “exhibited the effect of promoting fibroblast growth”. The “Fibroblast growth (% of control)” value in test [1] (setting [3]) is recorded as 102.9 % of control. The “increase” value in the test with NHDF (NB) cells (setting [4]) is given as “increased the amount of the hyaluronic acid production by fibroblasts”. Besides, in the test with NHDF (NB) cells (setting [5]), the “Hyaluronic acid production (% of control)” value is on record as 103.9 % of control.
For RLKRK (Ac-RLKRK-NH2) [OSK-17], the “effect of promoting fibroblast growth” value in test [1] (setting [2]) is listed as “exhibited the effect of promoting fibroblast growth”. For the same substance, the “Fibroblast growth (% of control)” value in test [1] (setting [3]) is reported as 104.2 % of control. For the same substance, the “Hyaluronic acid production (% of control)” value in the test on NHDF (NB) cells (setting [5]) is recorded as 81.8 % of control.
With LKLIF (Ac-LKLIF-NH2) [OSK-3], the “effect of promoting fibroblast growth” value in test [1] (setting [2]) was “exhibited the effect of promoting fibroblast growth”. In test [1] (setting [3]), the “Fibroblast growth (% of control)” value is on record as 104.7 % of control. For the same substance, the “Hyaluronic acid production (% of control)” value in the test with NHDF (NB) cells (setting [5]) is on record as 79.9 % of control.
Regarding RLKRL [OSK-10], the “effect of promoting fibroblast growth” value in test [1] (setting [2]) and in test [1] (setting [8]) was “exhibited the effect of promoting fibroblast growth” throughout. For the same substance, the “Fibroblast growth (% of control)” value in test [1] (setting [3]) was 116.2 % of control; in test [1] (setting [9]) it was 149.9 % of control. For the same substance, the “increase” value in the test on NHDF (NB) cells (setting [4]) and in the test with NHDF (NB) cells (setting [6]) was “increased the amount of the hyaluronic acid production by fibroblasts” in each case. Further, the “Hyaluronic acid production (% of control)” value is reported as 409.1 % of control with NHDF (NB) cells (setting [7]) and 198.2 % of control in the test with NHDF (NB) cells (setting [5]).
Consider LKRLR [OSK-11], for which the “effect of promoting fibroblast growth” value in test [1] (setting [2]) and in test [1] (setting [8]) was “exhibited the effect of promoting fibroblast growth” in each case. The “Fibroblast growth (% of control)” value in test [1] (setting [3]) is 112.5 % of control; in test [1] (setting [9]), 158.5 % of control. The “increase” value in the test with NHDF (NB) cells (setting [4]) and with NHDF (NB) cells (setting [6]) was “increased the amount of the hyaluronic acid production by fibroblasts” in each case. The “Hyaluronic acid production (% of control)” value with NHDF (NB) cells (setting [7]) was 255.0 % of control; in the test on NHDF (NB) cells (setting [5]) it was 112.1 % of control.
In the case of KRLKR (Ac-KRLKR-NH2) [OSK-16], the “effect of promoting fibroblast growth” value in test [1] (setting [2]) is “exhibited the effect of promoting fibroblast growth”. Moreover, in test [1] (setting [3]), the “Fibroblast growth (% of control)” value is recorded as 106.1 % of control. Further, the “increase” value with NHDF (NB) cells (setting [4]) was “increased the amount of the hyaluronic acid production by fibroblasts”. The “Hyaluronic acid production (% of control)” value in the test on NHDF (NB) cells (setting [5]) is reported as 110.6 % of control.
Regarding HRLKR [OSK-20], the “Hyaluronic acid production (% of control)” value with NHDF (NB) cells (setting [7]) is 94.0 % of control.
As to RLKR [OSK-18] (Ac-RLKR-NH2), the “increase” value with NHDF (NB) cells (setting [6]) was “increased the amount of the hyaluronic acid production by fibroblasts”. The “Hyaluronic acid production (% of control)” value with NHDF (NB) cells (setting [7]) is reported as 131.9 % of control.
As to KLIFL (Ac-KLIFL-NH2) [OSK-4], in test [1] (setting [2]), the “effect of promoting fibroblast growth” value is recorded as “exhibited the effect of promoting fibroblast growth”. Also, the “Fibroblast growth (% of control)” value in test [1] (setting [3]) is given as 102.6 % of control. Moreover, the “increase” value in the test with NHDF (NB) cells (setting [4]) is listed as “increased the amount of the hyaluronic acid production by fibroblasts”. Moreover, the “Hyaluronic acid production (% of control)” value with NHDF (NB) cells (setting [5]) is 212.4 % of control.
Turning to LHRLK (Ac-LHRLK-NH2) [OSK-8], the “Fibroblast growth (% of control)” value in test [1] (setting [3]) is 98.8 % of control. For the same substance, the “increase” value with NHDF (NB) cells (setting [4]) was “increased the amount of the hyaluronic acid production by fibroblasts”. In the test on NHDF (NB) cells (setting [5]), the “Hyaluronic acid production (% of control)” value is on record as 110.5 % of control.
Take FLHRL (Ac-FLHRL-NH2) [OSK-7]: the “Fibroblast growth (% of control)” value in test [1] (setting [3]) was 96.8 % of control. In the test on NHDF (NB) cells (setting [5]), the “Hyaluronic acid production (% of control)” value is on record as 75.2 % of control.
On to KRLRK (Ac-KRLRK-NH2) [OSK-12], for which, in test [1] (setting [2]), the “effect of promoting fibroblast growth” value is on record as “exhibited the effect of promoting fibroblast growth”. Besides, the “Fibroblast growth (% of control)” value in test [1] (setting [3]) is given as 100.3 % of control. For the same substance, the “Hyaluronic acid production (% of control)” value in the test on NHDF (NB) cells (setting [5]) is reported as 72.0 % of control.
For RLKR [OSK-22], the “increase” value in the test with NHDF (NB) cells (setting [6]) is “increased the amount of the hyaluronic acid production by fibroblasts”. The “Hyaluronic acid production (% of control)” value in the test with NHDF (NB) cells (setting [7]) is reported as 101.1 % of control.
As to “ELKLIFLHRLKRLRKRLKRK (Ac-ELKLIFLHRLKRLRKRLKRK-NH2) [OSK-1]”, the “effect of promoting fibroblast growth” value in test [1] (setting [2]) and in test [1] (setting [8]) was “exhibited the effect of promoting fibroblast growth” throughout. The “Fibroblast growth (% of control)” value is recorded as 146.4 % of control in test [1] (setting [3]) and 144.9 % of control in test [1] (setting [9]). Further, the “increase” value in the test on NHDF (NB) cells (setting [6]) was “increased the amount of the hyaluronic acid production by fibroblasts”. Moreover, the “Hyaluronic acid production (% of control)” value in the test on NHDF (NB) cells (setting [7]) is 2715.8 % of control.
As for LIFLH (Ac-LIFLH-NH2) [OSK-5], in test [1] (setting [3]), the “Fibroblast growth (% of control)” value is 97.6 % of control. For the same substance, the “Hyaluronic acid production (% of control)” value with NHDF (NB) cells (setting [5]) was 65.6 % of control.
